# Measured values reported in patent publication US20240285585A1, “L-ERGOTHIONEINE AND USES THEREOF” (NANJING NUTRABUILDING BIO-TECH CO., LTD., priority 2021, published 2024).
# System: human polymorphonuclear phagocytes
# Test: in vitro PMN model: ROS formation triggered by fMLP, dihydrorhodamine fluorescence by flow cytometry
# Format: cell-based
# Description: L-ergothioneine meeting the purity specifications defined herein was tested using in an in vitro PMN model using cells from a healthy blood donor. Minute samples of blood were exposed to L-ergothioneine (0.01-5 g/L) for 24 hours. The cells were then loaded with the dihydrorhodamine dye, which turns fluorescent upon exposure to ROS. Formation of ROS was triggered by addition of the bacterial peptide f-Met-Leu-Phe (fMLP). The samples were treated with a lysing buffer to eliminate most of the red blood cells in the samples, after which the samples were fixed in formalin. The fluorescence intensity of the PMN cells was evaluated by flow cytometry. The low fluorescence intensity of untreated control cells served as a baseline and PMN cells treated with fMLP alone served as a positive control.
# The results are depicted in FIG. 1. […] The percent inhibition is shown as the average±standard deviation of sextuplicate data points for each dose of L-ergothioneine.
compound,measurement,setting,value
"C[N+](C)(C)[C@@H](Cc1c[nH]c(=S)[nH]1)C(=O)[O-] [L-ergothioneine, (2S)-3-(2-thioxo-2,3-dihydro-1H-imidazol-4-yl)-2-(trimethylammonio)-propanoate]",ROS formation in response to the bacterial peptide fMLP,"PMN cells from a healthy blood donor, L-ergothioneine 0.01-5 g/L for 24 hours, compared to fMLP alone",enhanced ROS formation
same,increase in ROS formation compared to the control cultures,"across the 0.6 g/L dose reported in human tissue, 24 hours, fMLP-triggered",remained statistically significant
